Here are results for 13 compounds from US11345711B2, “8,9-dihydroimidazo[1,2-a]pyrimido[5,4-e]pyrimidin-5(6H)-ones” (IMPACT THERAPEUTICS (SHANGHAI), INC, priority 2016, dated 2022).

Where a name gives a salt, the structure may show the parent alone. Read-outs that look alike come from different tables or passages of the source.

Experiment [1] concerns the target Wee1 (h) (Homo sapiens, UniProt P30291). The experiment is described as follows: Wee1 kinase (h) detection method, [γ-33P]-ATP filter assay. In kind it is biochemical. As to the method: Determination of the inhibitory effect of 6-(2-chlorophenyl)-2-((4-(4-methylpiperazin-1-yl)phenyl)amino)-8,9-dihydroimidazo[1,2-a]pyrimido[5,4-e]pyrimidin-5(6H)-one and Analogs on the Enzyme Activity of Wee1 Kinase by Using the Wee1 Kinase (h) Detection Method
Then the stock solution of all compounds under test with 50× concentration in 100% DMSO was added to make the final concentration of 10/1/0.1/0.01 μM, and then mixed the mixture well. The reaction is initiated by the addition of the Mg/ATP mix. After incubation for 40 minutes at room temperature, the reaction is stopped by the addition of phosphoric acid to a concentration of 0.5%. […] Each compound sample is duplicated in duplicate. The negative control was lack of all the components of Wee1 enzyme, and the positive was addition of 30% phosphoric acid to terminate the reaction. The Wee1 inhibitor AZD1775 was detected at 10 μM at the same experiment condition.

Experiment [2] concerns NCI-H1299 cells. The experiment in a line: MTT based cell viability assay on NCI-H1299 cells. As to conditions: Homo sapiens, read-out: IC50, growth inhibition of NCI-H1299 cells. As to the method: Determination of the cell growth inhibiting activity of 6-(2-chlorophenyl)-2-((4-(4-methylpiperazin-1-yl)phenyl)amino)-8,9-dihydroimidazo[1,2-a]pyrimido[5,4-e]pyrimidin-5(6H)-one and analogs on NCI-H1299 cells using a MTT based cell viability assay
(§1) The thawed NCI-H1299 cells were cultured and passaged to the third generation, and the growth state was good and the confluence was about 90%, which began to be used in the experiment. The NCI-H1299 cells were digested with trypsin, centrifuged at 800 rpm for 5 min, the supernatant was discarded, resuspended with fresh culture group, and counted. 1000 Cells are seeded to each well of a 96-well plate. The cells are incubated at 37° C. in a 5% CO2 cell culture incubator overnight. The tested sample (including the tested compound and the reference compound AZD1775) was diluted continuously to 8 concentrations (the last concentration was negative control of DMSO) with a 1:3 and 1:10 dilution in DMSO respectively: 10 μM, 3.3 μM, 1 μM, 0.33 μM, 0.1 μM, 0.033 μM, 0.01 μM, 0 μM (the final concentration of DMSO was 1‰). 5 μL of each concentration was added to 120 μL of culture medium (25 times diluted), and the mixture was shaken well. The overnight cells were taken and the culture medium was removed, 195 μL of fresh culture medium was added to each well, and 5 μL of diluted culture medium containing the corresponding concentration of the tested sample was added respectively, and the culture plate was then placed in the 5% CO2 cell culture incubator at 37° C. for 3 d. After removing the original solution and adding 100 μL of fresh serum-free DMEM culture medium containing MTT (0.5 mg/mL) per well, the culture was continued. The original solution was removed after 4 hrs and 100 μl DMSO was added to each well. The 96-well cell culture plates were shaken away from light for 10 min and readed in a multifunctional reader at 552/630/690 nm to give absorption values (OD values). The data were analyzed using a commercial graphic software (Graph Pad Prism 5.0) and the inhibitory activity of the compound on cell proliferation was plotted in terms of cell survival and compound concentration. The IC50 values were fitted by the S-shaped dose-response curve equation as follows: Y=100/(1+10^(Log C−Log IC50)), where C was the concentration of testing compounds.

Experiment [3] relates to LoVo cells. The experiment in a line: MTT based cell viability assay on LoVo cells. As to conditions: Homo sapiens, LoVo, 72 h, 3 d, read-out: IC50, growth inhibition of LoVo cells. As to the method: Determination of the cell growth inhibiting activity of 6-(2-chlorophenyl)-2-((4-(4-methylpiperazin-1-yl)phenyl)amino)-8,9-dihydroimidazo[1,2-a]pyrimido[5,4-e]pyrimidin-5(6H)-one and analogs on LoVo cells using a MTT based cell viability assay
as §1, with “LoVo” for “NCI-H1299”, “medium,” for “group,”, “6000” for “1000”, “1%).” for “1‰).”, “C-Log” for “C−Log”

Chain of Wee1 (h) (P30291 whole entry): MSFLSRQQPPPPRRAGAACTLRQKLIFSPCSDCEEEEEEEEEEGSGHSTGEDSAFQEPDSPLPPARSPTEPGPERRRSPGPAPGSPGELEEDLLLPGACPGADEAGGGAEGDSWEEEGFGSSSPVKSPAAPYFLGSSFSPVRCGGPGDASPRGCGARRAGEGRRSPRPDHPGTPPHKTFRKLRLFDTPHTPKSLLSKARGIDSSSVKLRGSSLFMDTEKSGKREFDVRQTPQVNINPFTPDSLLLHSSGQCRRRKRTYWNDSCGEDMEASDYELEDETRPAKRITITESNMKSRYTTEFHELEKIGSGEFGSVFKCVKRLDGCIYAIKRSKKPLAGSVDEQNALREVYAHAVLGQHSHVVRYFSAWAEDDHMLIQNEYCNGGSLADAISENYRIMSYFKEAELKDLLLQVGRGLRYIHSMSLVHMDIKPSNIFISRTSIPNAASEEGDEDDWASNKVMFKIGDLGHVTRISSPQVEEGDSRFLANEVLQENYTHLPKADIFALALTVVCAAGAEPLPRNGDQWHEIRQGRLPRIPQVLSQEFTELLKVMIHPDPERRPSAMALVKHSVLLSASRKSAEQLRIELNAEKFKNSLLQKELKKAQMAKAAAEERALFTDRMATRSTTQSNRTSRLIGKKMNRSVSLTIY

Regarding `CN1CCN(c2ccc(Nc3cc4c(cn3)C(=O)N(c3ccccc3Cl)C3=NCCN34)cc2)CC1` [Example 3, 4-(2-Chlorophenyl)-8-((4-(4-methylpiperazin-1-yl)phenyl)amino)-2,4-dihydroimidazo[1,2-a]pyrido[3,4-e]pyrimidin-5(1H)-one], the “Inh. (%) of Wee1 kinase enzyme activity” value in experiment [1] (C 10 μm compound) is 56%. In addition, the IC50 in experiment [2] (NCI-H1299 cells) was above 10000 nM; in experiment [3] it was above 100000 nM.
Take `CN1CCN(c2ccc(Nc3ncc4c(n3)N3CCN=C3N(c3c(Cl)cccc3Cl)C4=O)cc2)CC1` [Example 4, 6-(2,6-Dichlorophenyl)-2-((4-(4-methylpiperazin-1-yl)phenyl)amino)-8,9-dihydroimidazo[1,2-a]pyrimido[5,4-e]pyrimidin-5(6H)-one]: the “Inh. (%) of Wee1 kinase enzyme activity” value in experiment [1] (C 0.01 μm compound) is reported as 55%; in experiment [1] (C 0.1 μm compound) it was 93%; in experiment [1] (C 1 μm compound) it was 97%. In experiment [1] (at 0.01 μM, read-out: inhibitory rate on Wee1 enzyme activity), the inhibition at 0.01 µM turned out to be 51%. For the same compound, the IC50 was 204 nM in experiment [2] (NCI-H1299, NCI-H1299 cells) and 169 nM in experiment [3].
For the compound `Cc1cccc(Cl)c1N1C(=O)c2cnc(Nc3ccc(N4CCN(C)CC4)cc3)nc2N2CCN=C21` [Example 5, 6-(2-Chloro-6-methylphenyl)-2-((4-(4-methylpiperazin-1-yl)phenyl)amino)-8,9-dihydroimidazo[1,2-a]pyrimido[5,4-e]pyrimidin-5(6H)-one], the “Inh. (%) of Wee1 kinase enzyme activity” value in experiment [1] (C 1 μm compound) is recorded as 88%. Moreover, the IC50 in experiment [2] (NCI-H1299 cells) is 941 nM; in experiment [3], 431 nM.
Take `CC(C)N1CCN(c2ccc(Nc3ncc4c(n3)N3CCN=C3N(c3c(F)cccc3Cl)C4=O)cc2)CC1` [Example 6, 6-(2-Chloro-6-fluorophenyl)-2-((4-(4-isopropylpiperazin-1-yl)phenyl)amino)-8,9-dihydroimidazo[1,2-a]pyrimido[5,4-e]pyrimidin-5(6H)-one]: the “Inh. (%) of Wee1 kinase enzyme activity” value in experiment [1] (C 0.01 μm compound) is listed as 33%; in experiment [1] (C 0.1 μm compound), 89%; in experiment [1] (C 1 μm compound), 98%. The IC50 in experiment [2] (NCI-H1299 cells) was found to be 461 nM; in experiment [3] it was 339 nM.
As to `CC(=O)N1CCN(c2ccc(Nc3ncc4c(n3)N3CCN=C3N(c3c(F)cccc3Cl)C4=O)cc2)CC1` [Example 7, 2-((4-(4-Acetylpiperazin-1-yl)phenyl)amino)-6-(2-chloro-6-fluorophenyl)-8,9-dihydroimidazo[1,2-a]pyrimido[5,4-e]pyrimidin-5(6H)-one], the “Inh. (%) of Wee1 kinase enzyme activity” value came to 31% in experiment [1] (C 0.01 μm compound), 84% in experiment [1] (C 0.1 μm compound) and 96% in experiment [1] (C 1 μm compound). The figures for the IC50 in experiment [2] (NCI-H1299 cells) and in experiment [3] were 1260 nM and 1430 nM, respectively.
As for `CN1CCc2ccc(Nc3ncc4c(n3)N3CCN=C3N(c3c(F)cccc3Cl)C4=O)cc2C1` [Example 8, 6-(2-Chloro-6-fluorophenyl)-2-((2-methyl-1,2,3,4-tetrahydroisoquinolin-7-yl)amino)-8,9-dihydroimidazo[1,2-a]pyrimido[5,4-e]pyrimidin-5(6H)-one], the “Inh. (%) of Wee1 kinase enzyme activity” value came to 60% in experiment [1] (C 0.01 μm compound), 93% in experiment [1] (C 0.1 μm compound) and 99% in experiment [1] (C 1 μm compound). The results for the IC50 in experiment [2] (NCI-H1299 cells) and in experiment [3] were 159 nM and 202 nM, respectively.
Turning to `CN1Cc2cc(Nc3ncc4c(n3)N3CCN=C3N(c3c(F)cccc3Cl)C4=O)ccc2C(C)(C)C1` [Example 9, 6-(2-Chloro-6-fluorophenyl)-2-((2,4,4-trimethyl-1,2,3,4-tetrahydroisoquinolin-7-yl)amino)-8,9-dihydroimidazo[1,2-a]pyrimido[5,4-e]pyrimidin-5(6H)-one], the “Inh. (%) of Wee1 kinase enzyme activity” value in experiment [1] (C 0.01 μm compound) is listed as 28%; in experiment [1] (C 0.1 μm compound), 79%; in experiment [1] (C 1 μm compound), 100%. Also, the half-inhibitory concentration (IC50) is 183 nM in experiment [2] (NCI-H1299 cells) and 126 nM in experiment [3].
Turning to `Cc1cc(Nc2ncc3c(n2)N2CCN=C2N(c2c(Cl)cccc2Cl)C3=O)ccc1N1CCC(N(C)C)CC1` [Example 141, 6-(2,6-Dichlorophenyl)-2-((4-(4-(dimethylamino)piperidin-1-yl)-3-methylphenyl)amino)-8,9-dihydroimidazo[1,2-a]pyrimido[5,4-e]pyrimidin-5(6H)-one], the IC50 worked out at 42.9 nM in experiment [2] (NCI-H1299 cells) and 37.3 nM in experiment [3].
The matching figures for `COc1cc(Nc2ncc3c(n2)N2CCN=C2N(c2c(Cl)cccc2Cl)C3=O)cc(C)c1N1CCN(C)CC1` [Example 159, 6-(2,6-Dichlorophenyl)-2-((3-methoxy-5-methyl-4-(4-methylpiperazin-1-yl)phenyl)amino)-8,9-dihydroimidazo[1,2-a]pyrimido[5,4-e]pyrimidin-5(6H)-one]: 56.8 nM and 52.2 nM.
The matching figures for `Cc1cc(Nc2ncc3c(n2)N2CCN=C2N(c2c(C)cccc2Cl)C3=O)cc(F)c1N1CCC(N(C)C)CC1` [Example 170, 6-(2-Chloro-6-methylphenyl)-2-((4-(4-(dimethylamino)piperidin-1-yl)-3-fluoro-5-methylphenyl)amino)-8,9-dihydroimidazo[1,2-a]pyrimido[5,4-e]pyrimidin-5(6H)-one]: 89.9 nM and 76.9 nM.
`Cc1cc(Nc2ncc3c(n2)N2CCN=C2N(c2c(Cl)cccc2Cl)C3=O)ccc1N1CCNCC1` [Example 177, 6-(2,6-Dichlorophenyl)-2-((3-methyl-4-(piperazin-1-yl)phenyl)amino)-8,9-dihydroimidazo[1,2-a]pyrimido[5,4-e]pyrimidin-5(6H)-one]: the 50% inhibitory concentration (IC50) worked out at 83.1 nM in experiment [2] (NCI-H1299 cells) and 59.5 nM in experiment [3].
Regarding `CNCc1cc(Nc2ncc3c(n2)N2CCN=C2N(c2c(Cl)cccc2Cl)C3=O)ccc1N1CCOCC1` [Example 184, 6-(2,6-Dichlorophenyl)-2-((3-((methylamino)methyl)-4-morpholinophenyl)amino)-8,9-dihydroimidazo[1,2-a]pyrimido[5,4-e]pyrimidin-5(6H)-one], the IC50 in experiment [2] (NCI-H1299 cells) was found to be 879 nM; in experiment [3], 1490 nM.
The matching figures for `CN1CCN(c2ccc(Nc3ncc4c(n3)N3CCN=C3N(c3c(Cl)cccc3Cl)C4=O)cc2Cl)CC1` [Example 186, 6-(2,6-Dichlorophenyl)-2-((3-chloro-4-(4-methylpiperazin-1-yl)phenyl)amino)-8,9-dihydroimidazo[1,2-a]pyrimido[5,4-e]pyrimidin-5(6H)-one dihydrochloride]: 154 nM and 42.4 nM.
